Laboratory results published in the supplement of paper PMC10307832.

compound: CC1(C)CNc2cc(NC(=O)c3cccnc3NCc3ccncc3)ccc21 [Motesanib] + Nc1nc2[nH]cc(CCc3ccc(C(=O)N[C@@H](CCC(=O)O)C(=O)O)cc3)c2c(=O)[nH]1 [Pemetrexed] (partner 0.2 µM); assay: relative viability (nuclei count vs DMSO), 5 days (fraction); higher = more cells survive; details: first compound 1 µM
Summary of the method: (§1)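 Lung cancer cell lines in 1536-well plates got either a single drug or a fixed anchor-drug dose together with five library-drug doses (not always all listed) in √10 steps, by pin tool, on the day after seeding. Nuclei were counted after 5 days, and relative viability is the treated-to-vehicle ratio of nuclei counts. Values are medians of duplicate plates.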

Cell Line	relative viability
A-427	0.972
NCI-H441	0.196
NCI-H661	0.961
NCI-H1734	0.265
NCI-H460	0.0745
NCI-H2347	0.364
SK-LU-1	0.347
201T	0.342
NCI-H1915	0.442
HCC-827	0.29
LXF-289	0.57
NCI-H23	0.545
NCI-H647	0.165
CAL-12T	1.08
NCI-H1651	0.585
EPLC-272H	0.243
NCI-H2228	0.241
NCI-H1355	0.991
NCI-H3122	0.219
NCI-H1437	0.297
NCI-H1755	0.32
NCI-H2023	0.263
HCC-15	0.202
PC-14	0.13
EKVX	0.406
LC-2-ad	0.256
NCI-H1975	0.239
RERF-LC-KJ	0.527

compound: C[C@@]1(C(=O)Nc2ccc(F)nc2)CCCN1c1nc(Nc2cc(C3CC3)n[nH]2)c2cccn2n1 + O=C(CCCCCCC(=O)Nc1ccccc1)NO [Vorinostat] (partner 1 µM); assay: as above; details: first compound 0.04 µM
Summary of the method: as §1

Cell Line	relative viability
ChaGo-K-1	0.713
NCI-H2405	0.959
HOP-62	0.589
LU99A	0.368
BEN	0.537
HARA	0.364
HCC-78	0.33
NCI-H322M	0.794
LCLC-97TM1	0.361
NCI-H2009	0.789
A-427	0.93
NCI-H441	0.55
NCI-H661	0.781
NCI-H1734	0.71
NCI-H460	0.829
NCI-H2347	0.581
SK-LU-1	0.804
201T	0.858
NCI-H1915	0.54

Cell Line	relative viability
HCC-827	0.891
LXF-289	0.815
NCI-H23	0.473
NCI-H647	0.711
CAL-12T	0.574
NCI-H1651	0.547
EPLC-272H	0.578
NCI-H2228	0.474
NCI-H1355	0.578
NCI-H3122	0.91
NCI-H1437	0.898
NCI-H1755	0.796
NCI-H2023	0.75
HCC-15	0.689
PC-14	0.792
EKVX	0.616
LC-2-ad	0.66
NCI-H1975	0.639
RERF-LC-KJ	0.747

same assay, conditions: first compound 0.1265 µM

Cell Line	relative viability
ChaGo-K-1	0.636
NCI-H2405	0.889
HOP-62	0.529
LU99A	0.245
BEN	0.492
HARA	0.233
HCC-78	0.491
NCI-H322M	0.688
LCLC-97TM1	0.28
NCI-H2009	0.768
A-427	0.857
NCI-H441	0.3
NCI-H661	0.774
NCI-H1734	0.58
NCI-H460	0.431
NCI-H2347	0.487
SK-LU-1	0.761
201T	0.755
NCI-H1915	0.519

Cell Line	relative viability
HCC-827	0.933
LXF-289	0.701
NCI-H23	0.332
NCI-H647	0.574
CAL-12T	0.567
NCI-H1651	0.499
EPLC-272H	0.234
NCI-H2228	0.444
NCI-H1355	0.499
NCI-H3122	0.972
NCI-H1437	0.744
NCI-H1755	0.609
NCI-H2023	0.201
HCC-15	0.51
PC-14	0.102
EKVX	0.648
LC-2-ad	0.554
NCI-H1975	0.62
RERF-LC-KJ	0.605

same assay, conditions: first compound 0.4 µM

Cell Line	relative viability
ChaGo-K-1	0.626
NCI-H2405	0.634
HOP-62	0.464
LU99A	0.229
BEN	0.467
HARA	0.31
HCC-78	0.245
NCI-H322M	0.638
LCLC-97TM1	0.106
NCI-H2009	0.747
A-427	0.864
NCI-H441	0.397
NCI-H661	0.815
NCI-H1734	0.486
NCI-H460	0.555
NCI-H2347	0.415
SK-LU-1	0.55
201T	0.634
NCI-H1915	0.475

Cell Line	relative viability
HCC-827	0.731
LXF-289	0.73
NCI-H23	0.27
NCI-H647	0.489
CAL-12T	0.461
NCI-H1651	0.517
EPLC-272H	0.336
NCI-H2228	0.513
NCI-H1355	0.403
NCI-H3122	0.916
NCI-H1437	0.527
NCI-H1755	0.653
NCI-H2023	0.419
HCC-15	0.555
PC-14	0.45
EKVX	0.509
LC-2-ad	0.526
NCI-H1975	0.576
RERF-LC-KJ	0.621

same assay, conditions: first compound 1.265 µM

Cell Line	relative viability
ChaGo-K-1	0.671
NCI-H2405	0.44
HOP-62	0.527
LU99A	0.193
BEN	0.439
HARA	0.433
HCC-78	0.327
NCI-H322M	0.64
LCLC-97TM1	0.0755
NCI-H2009	0.598
A-427	0.49
NCI-H441	0.511
NCI-H661	0.559
NCI-H1734	0.421
NCI-H460	0.302
NCI-H2347	0.543
SK-LU-1	0.367
201T	0.62
NCI-H1915	0.492
